Marks after values point to notes of the source that are not given here.
System: BALB/c normal liver (BNL) cells
Assay: Hydrogen peroxide cytotoxicity assay in BNL cells
Type: cell-based, BALB/c mouse
Conditions: then H2O2 2 hours, control 0.69
Procedure: BALB/c normal liver (BNL) cells were purchased from Bioresources Collection and Research Center (Hsinchu, Taiwan). Cell lines were grown in DMEM (Dulbecco's modified Eagle's medium) with 50 IU/mL penicillin, 50 μg/mL streptomycin, 50 IU/mL amphotericin B and 10% fetal bovine serum. For cytotoxicity assays, cells (5×10^3 cells/well) were plated into 96-well culture plates and allowed to attach overnight. The medium was replaced with fresh medium (as control) or with various concentrations of AFEW, AFEW-1 or kinsenoside for 16 hours. The cells were then washed with PBS and further treated with various doses of hydrogen peroxide (0.125-4.00 μM) for 2 hours. After H2O2 cytotoxic treatment, the percentage of viable cells was determined using a CellTiter 96 Aqueous Non-Radioactive Cell Proliferation Assay kit (Promega, Madison, Wis., USA). Reagent solution (20 μt) was added to each well and incubated at 37° C. in humidified 5% CO2 for 1 hour. Then, the absorbance was measured at 490 nm using a 96-well plate reader (Multiskan Spectrum, Labsystem, Thermo Electron Corporation, Finland).
Data from in vivo experiments were treated by one-way analysis of variance and Dunnett's test was applied. The significance level was set at p[…]00.05. […]

O=C1C[C@@H](OC2OC(CO)C(O)C(O)C2O)CO1 (stereo partly drawn) [Kinsenoside, 3-(R)-3-β-D-glucopyranosyloxybutanolide]
H2O2 LD50 (95% confidence limits) (pretreatment 20 μg/mL for 16 hours): 0.81 (0.74-0.88)^a μM | H2O2 LD50 (95% confidence limits) (pretreatment 40 μg/mL for 16 hours): 1.17 (1.01-1.36)^a μM

Reference: patent publication US9072770B2, “Aqueous extracts of Anoectochilus spp. kinsenoside and pharmaceutical compositions useful for hepatoprotection” (CHINA MEDICAL UNIVERSITY, priority 2007, dated 2015)
